Columns and labels:
Assay type in all cases: cell-based
E. coli BL21 = assay: MIC against Gram-negative bacteria: E. coli BL21; settings: E. coli BL21; for MIC (μg/mL) E. coli BL21 / MIC against E. coli BL21: 5×10^5 CFU/mL
Procedure, shortened: (§1)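 MIC, the lowest recombinant protein concentration giving no bacterial growth, found by two-fold serial dilution of human EGF-domain proteins in triplicate. Inoculum 5×10^5 CFU/mL in LB from cultures at McFarland 0.5; plates incubated at 37° C, 175 rpm shaking.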

Serratia marcescens = assay: MIC against Gram-negative bacteria: Serratia marcescens; settings: for MIC (μg/mL) S. marcescens / MIC against S. marcescens: 5×10^5 CFU/mL
Procedure, shortened: as §1

Klebsiella pneumonia = assay: MIC against Gram-negative bacteria: Klebsiella pneumonia; settings: for MIC (μg/mL) K. pneumonia / MIC against K. pneumonia: 5×10^5 CFU/mL
Procedure, shortened: as §1

Proteus vulgaris = assay: MIC against Gram-negative bacteria: Proteus vulgaris; settings: for MIC (μg/mL) P. vulgaris / MIC against P. vulgaris: 5×10^5 CFU/mL
Procedure, shortened: as §1

Enterobacter cloacae = assay: MIC against Gram-negative bacteria: Enterobacter cloacae; settings: for MIC (μg/mL) E. cloacae / MIC against E. cloacae: 5×10^5 CFU/mL
Procedure, shortened: as §1

Proteus mirabilis = assay: MIC against Gram-negative bacteria: Proteus mirabilis; settings: for MIC (μg/mL) P. mirabilis / MIC against P. mirabilis: 5×10^5 CFU/mL
Procedure, shortened: as §1

Moraxella catarrhalis = assay: MIC against Gram-negative bacteria: Moraxella catarrhalis; settings: for MIC (μg/mL) M. catarrhalis / MIC against M. catarrhalis: 5×10^5 CFU/mL
Procedure, shortened: as §1

Pseudomonas aeruginosa = assay: MIC against Gram-negative bacteria: Pseudomonas aeruginosa; settings: for MIC (μg/mL) P. aeruginosa / MIC against P. aeruginosa: 5×10^5 CFU/mL
Procedure, shortened: as §1

E. coli DH5α = assay: Antibacterial activity: MIC and growth curve against E. coli DH5α in 96-well plate; settings: minimal inhibitory concentration against E. coli DH5α; 96-well plate, 5×10^5 CFU/mL, 37° C., judged after 8 h
Procedure, shortened: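 Log-phase bacteria (OD600 ~0.5) resuspended in LB at 5×10^5 CFU/mL, exposed to recombinant protein at 50, 25, 12.5 μg/mL final in triplicate, 37 °C shaking at 175 rpm. OD600 read every 30 min; MIC is lowest concentration showing no growth.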

Aeromonas hydrophila = assay: MIC against Gram-negative bacteria: Aeromonas hydrophila; settings: for MIC (μg/mL) A. hydrophila / MIC against A. hydrophila: 5×10^5 CFU/mL
Procedure, shortened: as §1

Citrobacter diversus = assay: MIC against Gram-negative bacteria: Citrobacter diversus; settings: for MIC (μg/mL) C. diversus / MIC against C. diversus: 5×10^5 CFU/mL
Procedure, shortened: as §1

[1] = S. marcescens, 10 h cultivation at 37° C.
[2] = K. pneumonia, 10 h cultivation at 37° C.
[3] = P. vulgaris, 10 h cultivation at 37° C.
[4] = E. cloacae, 10 h cultivation at 37° C.
[5] = P. mirabilis, 10 h cultivation at 37° C.
[6] = M. catarrhalis, 10 h cultivation at 37° C.
[7] = P. aeruginosa, 10 h cultivation at 37° C.
[8] = A. hydrophila, 10 h cultivation at 37° C.
[9] = C. diversus, 10 h cultivation at 37° C.
[10] = Serratia marcescens, 96-well plate, 37° C., 10 h
[11] = Klebsiella pneumonia, 96-well plate, 37° C., 10 h
[12] = Proteus vulgaris, 96-well plate, 37° C., 10 h
[13] = Enterobacter cloacae, 96-well plate, 37° C., 10 h
[14] = Proteus mirabilis, 96-well plate, 37° C., 10 h
[15] = Moraxella catarrhalis, 96-well plate, 37° C., 10 h
[16] = Pseudomonas aeruginosa, 96-well plate, 37° C., 10 h
[17] = Aeromonas hydrophila, 96-well plate, 37° C., 10 h
[18] = Citrobacter diversus, 96-well plate, 37° C., 10 h

PRT946 (EVDECQNQPCQNGGTCIDLVNHFKCSCPPGTRGLLCE; listed as Homo sapiens)
MIC (E. coli BL21; 10 h cultivation at 37° C.): 12.5 mg/L | MIC (Serratia marcescens; [1]): 50 mg/L | MIC (Klebsiella pneumonia; [2]): 12.5 mg/L | MIC (Proteus vulgaris; [3]): 12.5 mg/L | MIC (Enterobacter cloacae; [4]): 50 mg/L | MIC (Proteus mirabilis; [5]): 25 mg/L | MIC (Moraxella catarrhalis; [6]): 50 mg/L | MIC (Pseudomonas aeruginosa; [7]): 50 mg/L | MIC (E. coli DH5α): 50 mg/L | MIC (Aeromonas hydrophila; [8]): 25 mg/L | MIC (Citrobacter diversus; [9]): 12.5 mg/L

PRT97 (DSRGCARWCPQNSSCVNATACRCNPGFSSFSEIITTPTETCD; listed as Homo sapiens)
MIC (μg/mL) E. coli BL21 (E. coli BL21; 96-well plate, 37° C., 10 h): 12.5 µg/mL | MIC (μg/mL) S. marcescens (Serratia marcescens; [10]): 50 µg/mL | MIC (μg/mL) K. pneumonia (Klebsiella pneumonia; [11]): 12.5 µg/mL | MIC (μg/mL) P. vulgaris (Proteus vulgaris; [12]): 12.5 µg/mL | MIC (μg/mL) E. cloacae (Enterobacter cloacae; [13]): 12.5 µg/mL | MIC (μg/mL) P. mirabilis (Proteus mirabilis; [14]): 50 µg/mL | MIC (μg/mL) M. catarrhalis (Moraxella catarrhalis; [15]): 100 µg/mL | MIC (μg/mL) P. aeruginosa (Pseudomonas aeruginosa; [16]): 25 µg/mL | MIC (E. coli DH5α): 25 mg/L | MIC (μg/mL) A. hydrophila (Aeromonas hydrophila; [17]): 12.5 µg/mL | MIC (μg/mL) C. diversus (Citrobacter diversus; [18]): 50 µg/mL

PRT967 (ARDACESQPCRAGGTCSSDGMGFHCTCPPGVQGRQCE; listed as Homo sapiens)
MIC (E. coli BL21; 10 h cultivation at 37° C.): 12.5 mg/L | MIC (Serratia marcescens; [1]): 12.5 mg/L | MIC (Klebsiella pneumonia; [2]): 25 mg/L | MIC (Proteus vulgaris; [3]): 25 mg/L | MIC (Enterobacter cloacae; [4]): 12.5 mg/L | MIC (Proteus mirabilis; [5]): 12.5 mg/L | MIC (Moraxella catarrhalis; [6]): 25 mg/L | MIC (Pseudomonas aeruginosa; [7]): 12.5 mg/L | MIC (E. coli DH5α): 50 mg/L | MIC (Aeromonas hydrophila; [8]): 25 mg/L | MIC (Citrobacter diversus; [9]): 12.5 mg/L

PRT1259 (CAVNNGGCDRTCKDTATGVRCSCPVGFTLQPDGKTC; listed as Homo sapiens)
MIC against E. coli BL21 (E. coli BL21; 96-well plate, 37° C., 10 h): 50 mg/L | MIC against S. marcescens (Serratia marcescens; [10]): 12.5 mg/L | MIC against K. pneumonia (Klebsiella pneumonia; [11]): 12.5 mg/L | MIC against P. vulgaris (Proteus vulgaris; [12]): 50 mg/L | MIC against E. cloacae (Enterobacter cloacae; [13]): 25 mg/L | MIC against P. mirabilis (Proteus mirabilis; [14]): 12.5 mg/L | MIC against M. catarrhalis (Moraxella catarrhalis; [15]): 50 mg/L | MIC against P. aeruginosa (Pseudomonas aeruginosa; [16]): 25 mg/L | MIC (E. coli DH5α): 25 mg/L | MIC against A. hydrophila (Aeromonas hydrophila; [17]): 50 mg/L | MIC against C. diversus (Citrobacter diversus; [18]): 12.5 mg/L

PRT843 (CQCNGHGDPRRGHCDNLSGLCFCQDHTEGAHCQLCSPGYYGDPRAGGSCFR; listed as Homo sapiens)
MIC (μg/mL) E. coli BL21 (E. coli BL21; 10 h cultivation at 37° C.): 12.5 µg/mL | MIC (μg/mL) S. marcescens (Serratia marcescens; [1]): 50 µg/mL | MIC (μg/mL) K. pneumonia (Klebsiella pneumonia; [2]): 12.5 µg/mL | MIC (μg/mL) P. vulgaris (Proteus vulgaris; [3]): 25 µg/mL | MIC (μg/mL) E. cloacae (Enterobacter cloacae; [4]): 25 µg/mL | MIC (μg/mL) P. mirabilis (Proteus mirabilis; [5]): 25 µg/mL | MIC (μg/mL) M. catarrhalis (Moraxella catarrhalis; [6]): 12.5 µg/mL | MIC (μg/mL) P. aeruginosa (Pseudomonas aeruginosa; [7]): 12.5 µg/mL | MIC (E. coli DH5α): 25 mg/L | MIC (μg/mL) A. hydrophila (Aeromonas hydrophila; [8]): 50 µg/mL | MIC (μg/mL) C. diversus (Citrobacter diversus; [9]): 25 µg/mL

PRT1330 (VVDFCKQDNGGCAKVARCSQKGTKVSCSCQKGYKGDGHSCT; listed as Homo sapiens)
MIC against E. coli BL21 (E. coli BL21; 96-well plate, 37° C., 10 h): 12.5 mg/L | MIC against S. marcescens (Serratia marcescens; [10]): 50 mg/L | MIC against K. pneumonia (Klebsiella pneumonia; [11]): 12.5 mg/L | MIC against P. vulgaris (Proteus vulgaris; [12]): 25 mg/L | MIC against E. cloacae (Enterobacter cloacae; [13]): 50 mg/L | MIC against P. mirabilis (Proteus mirabilis; [14]): 12.5 mg/L | MIC against M. catarrhalis (Moraxella catarrhalis; [15]): 25 mg/L | MIC against P. aeruginosa (Pseudomonas aeruginosa; [16]): 12.5 mg/L | MIC (E. coli DH5α): 12.5 mg/L | MIC against A. hydrophila (Aeromonas hydrophila; [17]): 12.5 mg/L | MIC against C. diversus (Citrobacter diversus; [18]): 50 mg/L

Source: patent US9833497B2, “Human originated EGF domain proteins and use of the same” (CHENGDU SOURCEBIO LIMITED-LIABILITY COMPANY, priority 2013, dated 2017)
